According to patent publication US20250195513A1, “DEGRADATION OF IRAK4 BY CONJUGATION OF IRAK4 INHIBITORS WITH E3 LIGASE LIGAND AND METHODS OF USE” (BeiGene, Ltd., priority 2022, published 2025):

Key:
[1] = target: T1, IRAK4 (Homo sapiens, UniProt Q9NWZ3); assay: IRAK4 Degradation Assay (Karpas299, HTRF/TR-FRET); format: cell-based; conditions: Karpas-299 cells; for Dmax: maximum percentage of degradation
T1 construct: endogenous in cells; host or cells: Karpas299
T1 sequence (Q9NWZ3 1-460): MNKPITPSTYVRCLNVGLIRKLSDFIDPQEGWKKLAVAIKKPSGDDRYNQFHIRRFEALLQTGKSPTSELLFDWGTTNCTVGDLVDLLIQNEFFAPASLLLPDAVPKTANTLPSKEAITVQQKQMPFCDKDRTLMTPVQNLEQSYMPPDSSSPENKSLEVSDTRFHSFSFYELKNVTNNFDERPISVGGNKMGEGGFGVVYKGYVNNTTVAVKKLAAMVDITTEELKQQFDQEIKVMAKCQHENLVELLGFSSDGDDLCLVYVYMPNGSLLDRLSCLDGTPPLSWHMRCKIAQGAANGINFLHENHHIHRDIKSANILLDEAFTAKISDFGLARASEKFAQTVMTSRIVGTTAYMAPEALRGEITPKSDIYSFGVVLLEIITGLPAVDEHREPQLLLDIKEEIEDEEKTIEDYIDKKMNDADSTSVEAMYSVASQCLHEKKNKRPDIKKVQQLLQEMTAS
In short: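 Karpas299 cells at 0.2 million per well were exposed to serially diluted compounds for 24 h or 5 h, then lysed. IRAK4 remaining in lysates was quantified by HTRF (665/620 nm) after overnight antibody incubation at room temperature. Percent degradation was fitted to a four-parameter curve to give IC50 (DC50).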

[2] = target: T1, IRAK4; assay: IRAK4 Degradation Assay with Human Serum (Karpas299, HTRF/TR-FRET); format: cell-based; conditions: Karpas-299 in human serum, 24 hrs treatment; for DC50: read-out: IRAK4 degradtion with human serum assay DC50; for Dmax: read-out: IRAK4 degradtion with human serum assay Dmax (%)
In short: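 Karpas299 cells in human AB serum (0.2 million/well) treated with serial compound dilutions for 24 h. After lysis, IRAK4 quantified by HTRF (overnight antibody incubation at room temperature, 665/620 nm read). Degradation percentage fitted to four-parameter curve to give DC50.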

[3] = 24 h treatment, read-out: IRAK4 in Karpas-299 (24 h) Dmax (%)
[4] = 24 h treatment, read-out: IRAK4 in Karpas-299 (24 h) DC50

SMILES	Dmax [1, 3] [%]	DC50 [1, 4] [nM]	DC50 [2] [nM]	Dmax [2] [%]	Dmax ([1]; 5 h treatment, read-out: IRAK4 in Karpas-299 (5 h) Dmax (%)) [%]	DC50 ([1]; 5 h treatment, read-out: IRAK4 in Karpas-299 (5 h) DC50) [nM]
C[C@H]1CN(CCc2cc(F)c([C@H]3CCC(=O)NC3=O)c(F)c2)CCN1[C@H]1CC[C@H](n2cc3cc(NC(=O)c4ccc5cc(C#N)cnn45)c(C(C)(C)O)cc3n2)CC1 [Example 305, 3-cyano-N-(2-((1S,4r)-4-((S)-4-(4-((R)-2,6-dioxopiperidin-3-yl)-3,5-difluorophenethyl)-2-methylpiperazin-1-yl)cyclohexyl)-6-(2-hydroxypropan-2-yl)-2H-indazol-5-yl)pyrrolo[1,2-b]pyridazine-7-carboxamide]	96	1.7	5.1	99	–	–
Cn1c(=O)n(C2CCC(=O)NC2=O)c2cccc(CCCN3CCN(C45CC(n6cc7cc(NC(=O)c8ccc9cc(C#N)cnn89)c(C(C)(C)O)cc7n6)(C4)C5)CC3)c21 (stereo not drawn) [Example 350, 3-cyano-N-(2-(3-(4-(3-(1-(2,6-dioxopiperidin-3-yl)-3-methyl-2-oxo-2,3-dihydro-1H-benzo[d]imidazol-4-yl)propyl)piperazin-1-yl)bicyclo[1.1.1]pentan-1-yl)-6-(2-hydroxypropan-2-yl)-2H-indazol-5-yl)pyrrolo[1,2-b]pyridazine-7-carboxamide]	89	2.1	16	97	–	–
CC(C)(O)c1cc2nn(C3CCC4(CC3)CCN(C3CN(c5cc(F)c([C@H]6CCC(=O)NC6=O)c(F)c5)C3)CC4)cc2cc1NC(=O)c1ccc2cc(C#N)cnn12 [Example 428, (R)-3-cyano-N-(2-(3-(1-(4-(2,6-dioxopiperidin-3-yl)-3,5-difluorophenyl)azetidin-3-yl)-3-azaspiro[5.5]undecan-9-yl)-6-(2-hydroxypropan-2-yl)-2H-indazol-5-yl)pyrrolo[1,2-b]pyridazine-7-carboxamide]	93	2.9	33	94	–	–
COc1cc2nn([C@H]3CC[C@H](N4CCN(CCc5cc(F)c([C@H]6CCC(=O)NC6=O)c(F)c5)CC4)CC3)cc2cc1NC(=O)c1ccc2cc(C#N)cnn12 [Example 337, 3-cyano-N-(2-((1R,4r)-4-(4-(4-((R)-2,6-dioxopiperidin-3-yl)-3,5-difluorophenethyl)piperazin-1-yl)cyclohexyl)-6-methoxy-2H-indazol-5-yl)pyrrolo[1,2-b]pyridazine-7-carboxamide]	96	2.1	10	89	–	–
CC(C)(O)c1cc2nn([C@H]3CC[C@H](C4CCN(C5CCN(c6cc(F)c([C@H]7CCC(=O)NC7=O)c(F)c6)CC5)CC4)CC3)cc2cc1NC(=O)c1ccc2cc(C#N)cnn12 [Example 409, 3-cyano-N-(2-((1r,4r)-4-(1′-(4-((R)-2,6-dioxopiperidin-3-yl)-3,5-difluorophenyl)-[1,4′-bipiperidin]-4-yl)cyclohexyl)-6-(2-hydroxypropan-2-yl)-2H-indazol-5-yl)pyrrolo[1,2-b]pyridazine-7-carboxamide]	97	3.5	10	96	–	–
COc1cc(N2CC(C(=O)N3CCN([C@H]4CC[C@H](n5cc6cc(NC(=O)c7ccc8cc(C#N)cnn78)c(C(C)(C)O)cc6n5)CC4)CC3)C2)cc(F)c1N1CCC(=O)NC1=O [Example 210, 3-cyano-N-(2-((1r,4r)-4-(4-(1-(4-(2,4-dioxotetrahydropyrimidin-1(2H)-yl)-3-fluoro-5-methoxyphenyl)azetidine-3-carbonyl)piperazin-1-yl)cyclohexyl)-6-(2-hydroxypropan-2-yl)-2H-indazol-5-yl)pyrrolo[1,2-b]pyridazine-7-carboxamide]	97	3.3	7	98	97	6.8
COC[C@H]1CN([C@H]2CC[C@H](n3cc4cc(NC(=O)c5ccc6cc(C#N)cnn56)c(C(C)(C)O)cc4n3)CC2)CCN1C(=O)[C@@H]1CCN(c2cc(F)c(N3CCC(=O)NC3=O)c(F)c2)C1 [Example 316, 3-cyano-N-(2-((1R,4r)-4-((R)-4-((R)-1-(4-(2,4-dioxotetrahydropyrimidin-1(2H)-yl)-3,5-difluorophenyl)pyrrolidine-3-carbonyl)-3-(methoxymethyl)piperazin-1-yl)cyclohexyl)-6-(2-hydroxypropan-2-yl)-2H-indazol-5-yl)pyrrolo[1,2-b]pyridazine-7-carboxamide]	97	1.6	35	95	–	–
CC(C)(O)c1cc2nn([C@H]3CC[C@H](N4CCN(C5CCN(c6cc(F)c(N7CCC(=O)NC7=O)c(F)c6)CC5)CC4)CC3)cc2cc1NC(=O)c1ccc2cc(C#N)cnn12 [Example 293, 3-cyano-N-(2-((1r,4r)-4-(4-(1-(4-(2,4-dioxotetrahydropyrimidin-1(2H)-yl)-3,5-difluorophenyl)piperidin-4-yl)piperazin-1-yl)cyclohexyl)-6-(2-hydroxypropan-2-yl)-2H-indazol-5-yl)pyrrolo[1,2-b]pyridazine-7-carboxamide]	96	9.4	9.4	96	–	–
CC(C)(O)c1cc2nn([C@H]3CC[C@H](N4CCN(C[C@@H]5CCN(c6ccc7c(c6)C(=O)N(C6CCC(=O)NC6=O)C7=O)C5)CC4)CC3)cc2cc1NC(=O)c1ccc2cc(C#N)cnn12 (stereo partly drawn) [Example 431, 3-cyano-N-(2-((1S,4r)-4-(4-(((3S)-1-(2-(2,6-dioxopiperidin-3-yl)-1,3-dioxoisoindolin-5-yl)pyrrolidin-3-yl)methyl)piperazin-1-yl)cyclohexyl)-6-(2-hydroxypropan-2-yl)-2H-indazol-5-yl)pyrrolo[1,2-b]pyridazine-7-carboxamide]	94	1.6	8.7	95	–	–

Next, values leading:

Dmax [1, 3] [%]	DC50 [1, 4] [nM]	DC50 [2] [nM]	Dmax [2] [%]	Dmax ([1]; 5 h treatment, read-out: IRAK4 in Karpas-299 (5 h) Dmax (%)) [%]	DC50 ([1]; 5 h treatment, read-out: IRAK4 in Karpas-299 (5 h) DC50) [nM]	SMILES
94	0.4	6.6	95	–	–	Cn1c(=O)n(C2CCC(=O)NC2=O)c2cccc(CCCN3CCN([C@H]4CC[C@H](n5cc6cc(NC(=O)c7ccc8cc(C#N)cnn78)c(C(C)(C)O)cc6n5)CC4)CC3)c21 (stereo partly drawn) [Example 348, 3-cyano-N-(2-((1r,4r)-4-(4-(3-(1-(2,6-dioxopiperidin-3-yl)-3-methyl-2-oxo-2,3-dihydro-1H-benzo[d]imidazol-4-yl)propyl)piperazin-1-yl)cyclohexyl)-6-(2-hydroxypropan-2-yl)-2H-indazol-5-yl)pyrrolo[1,2-b]pyridazine-7-carboxamide]
99	0.4	22	95	–	–	CC(C)(O)c1cc2nn([C@H]3CC[C@H](N4CCN(C(=O)C5CN(c6cc(F)c([C@H]7CCC(=O)NC7=O)c(F)c6)C5)CC4=O)CC3)cc2cc1NC(=O)c1ccc2cc(C#N)cnn12 [Example 199, 3-cyano-N-(2-((1r,4r)-4-(4-(1-(4-((R)-2,6-dioxopiperidin-3-yl)-3,5-difluorophenyl)azetidine-3-carbonyl)-2-oxopiperazin-1-yl)cyclohexyl)-6-(2-hydroxypropan-2-yl)-2H-indazol-5-yl)pyrrolo[1,2-b]pyridazine-7-carboxamide]
90	0.9	4.2	95	–	–	COC[C@@H]1CN(C2CN(c3cc(F)c([C@H]4CCC(=O)NC4=O)c(F)c3)C2)CCN1[C@H]1CC[C@H](n2cc3cc(NC(=O)c4ccc5cc(C#N)cnn45)c(C(C)(C)O)cc3n2)CC1 [Example 327, 3-cyano-N-(2-((1S,4r)-4-((S)-4-(1-(4-((R)-2,6-dioxopiperidin-3-yl)-3,5-difluorophenyl)azetidin-3-yl)-2-(methoxymethyl)piperazin-1-yl)cyclohexyl)-6-(2-hydroxypropan-2-yl)-2H-indazol-5-yl)pyrrolo[1,2-b]pyridazine-7-carboxamide]
97	1.6	50	94	–	–	CC(C)(O)c1cc2nn(C34CC(N5CCN(C(=O)C6CN(c7cc(F)c([C@H]8CCC(=O)NC8=O)c(F)c7)C6)CC5)(C3)C4)cc2cc1NC(=O)c1cccc(C(F)(F)F)n1 [Example 153, (R)—N-(2-(3-(4-(1-(4-(2,6-dioxopiperidin-3-yl)-3,5-difluorophenyl)azetidine-3-carbonyl)piperazin-1-yl)bicyclo[1.1.1]pentan-1-yl)-6-(2-hydroxypropan-2-yl)-2H-indazol-5-yl)-6-(trifluoromethyl)picolinamide]
